Data set [1] has as its system Human BuRkitt's lymphoma cell line (DG-75, ATCC No. CRL-2675). Description: Proliferation inhibition of human Burkitt's lymphoma cell line DG-75 (Cell Counting Kit-8). In kind it is cell-based. Particulars: DG-75 cells, 72 hours culture, Cell Counting Kit-8, absorbance 450 nm; for IC50: Homo sapiens, read-out: IC50 (compound concentration with a proliferation-inhibition rate of 50%), DG-75. As for the experimental part:
(§1) Human BuRkitt's lymphoma cell line (DG-75, ATCC No. CRL-2675) or human Burkitt's lymphoma cell line (Raji, ATCC No. CRL-86) was suspended in an RPMI-1640 medium (SIGMA) (hereinafter called culture solution) containing 10% calf serum (Moregate) and 10% fetal bovine serum (Hyclone) so as to set the cell number at 1×10^5/mL. After 50 μL of the cell suspension was added to a 96-well microplate, 49 μL of the above culture solution was added thereto to set the whole volume at 99 μL. Compounds represented by Formulae (6) to (11) that solved in DMSO, 5-FU (Wako) or doxorubicin (Wako) (all 0.0001 to 10 μg/mL) were each added to one well by 1 μL, and cultured with a CO2 concentration of 5% at 37° C. for 72 hours. After culturing, 10 μL of Wako cell Counting Kit-8 (Wako) was added to each well and subjected to color reaction in a CO2 incubator for 3 hours. Proliferation-inhibition rate was calculated from absorbance values measured with a microplate reader at 450 nm (reference wavelength: 620 nm) using the following expression to determine a compound concentration in a culture solution with a proliferation-inhibition rate of 50% as IC50 value.
On the technique in general: Tetrazolium dyes change colour on reduction, which living cells bring about.

The subject of data set [2] is human Burkitt's lymphoma cell line (Raji, ATCC No. CRL-86). Description: Proliferation inhibition of human Burkitt's lymphoma cell line Raji (Cell Counting Kit-8). In kind it is cell-based. Particulars: Raji cells, 72 hours culture, Cell Counting Kit-8, absorbance 450 nm; for IC50: Homo sapiens, read-out: IC50 (compound concentration with a proliferation-inhibition rate of 50%), Raji. How it is done:
as §1

Data set [3] has as its system Meth A fibrosarcoma cells. Nature of the data set: Anticancer activity in mice with transplanted Meth A fibrosarcoma cells (tumor weight). In kind it is in vivo, Balb/c mouse. The following applies: for Proliferation-inhihition rate (%): 1/3 of the whole volume at 7th, 9th and 11th days, tumor weight at 21st day, female Balb/c mouse. How it is done:
A compound represented by Formula (8) (50 to 500 μg/kg) that solved in ethanol or 5-FU (10 mg/kg) was administered to an 8-week old female Balb/c mouse (Japan SLC) having approx. 1×10^5 of Meth A fibrosarcoma cells (Kitasato Institute) intraperitoneally transplanted therein by ⅓ of the whole volume at 7th, 9th and 11th days intravenously (but 5-FU administered intraperitoneally) to measure tumor weight at 21st day. Using a control mouse to which normal saline solution was administered in lieu of a test compound, anticancer activity on each compound was expressed in number according to a formula of proliferation-inhibition rate (%)=(1−(sample/blank))×100.

Data set [4] can be described thus: Solubility in solvents (physicochemical description). Particulars: qualitative, organic solvents and water.

This note sets out measurements from patent publication US8071793B2, “Macrolide compound” (National University Corporation Hokkaido University, priority 2006, dated 2011).

Values after ≈ are worked out from the molar mass of the structure shown.

`O=c1[nH]cc(F)c(=O)[nH]1` [Compound 5-FU, 5-FU, reference compound]: in data set [1], the “IC50 (compound concentration with a proliferation-inhibition rate of 50%), DG-75” value was 0.9 µg/mL. Moreover, the “IC50 (compound concentration with a proliferation-inhibition rate of 50%), Raji” value in data set [2] was 3.0 µg/mL. The “Proliferation-inhihition rate (%)” value in data set [3] (10000 μg/kg (10 mg/kg), intraperitoneally) turned out to be 60.2%.

For the compound `C=C1/C=C(\C)C(C)CC(O)CC(=O)C(O)C(O)C(C)CC(C)OC(=O)C(C)C(O)CCCCC2OC2CC(C)C1` (stereo not drawn) [Compound 6], the IC50 in data set [1] was determined as 0.02 µg/mL (≈ 0.0353 µM). The Solubility result in data set [4] was “soluble in alcohol, chloroform, ethyl acetate and acetone, insoluble in hexane and water”.

As to `C=C1/C=C(\C)C(C)CC(O)CC(=O)C(O)C(O)C(C)CC(C)OC(=O)/C(C)=C/CCCCC2OC2CC(C)C1` (stereo not drawn) [Compound 7], the IC50 in data set [1] was found to be 0.4 µg/mL (≈ 0.729 µM). Moreover, in data set [4], the Solubility result is “soluble in alcohol, chloroform, ethyl acetate and acetone, insoluble in hexane and water”.

Consider `C=C1CC2C/C=C/C(O)C(C)/C(C)=C\C(=O)OC(CC(C)C(C)O)C(C)C/C=C/C(C)(O)C(O)(C1)O2` (stereo not drawn) [Compound 8], for which the IC50 in data set [1] stood at 0.002 µg/mL (≈ 0.00395 µM); in data set [2], 0.003 µg/mL (≈ 0.00592 µM). In addition, the Solubility result in data set [4] was “soluble in chloroform, acetone, ethyl acetate, ethanol and methanol, insoluble in water and hexane”. Moreover, the “Proliferation-inhihition rate (%)” value in data set [3] (50 μg/kg, intravenously) is 5.3%; in data set [3] (200 μg/kg, intravenously), 62.2%; in data set [3] (500 μg/kg, intravenously) it was 54.3%. Also, the “Proliferation-inhibition rate (anticancer activity) compared with 5-FU” value in data set [3] (Meth A fibrosarcoma mouse model, Formula (8) administered with a lower concentration than 5-FU) was “almost the same proliferation-inhibition rate (anticancer activity) as 5-FU”.

For the compound `C/C1=C/C(=O)C(C)(O)/C=C/CC(C)C(CC(C)C(C)O)OC(=O)/C=C(/C)C(C)C(O)/C=C/CC(O)C1` (stereo not drawn) [Compound 9], in data set [1], the IC50 was found to be 0.9 µg/mL (≈ 1.78 µM). The Solubility entry in data set [4] is “soluble in chloroform, acetone, ethyl acetate and ethanol, insoluble in water and hexane”.

As for `C=C(C(O)CC)C(C)C(O)C1CCC/C(C)=C/C2OC(CC2C)C2OC(CC/C=C/CCC(C)C(=O)O1)CC2O` (stereo not drawn) [Compound 10], the results for the IC50 in data set [1] and in data set [2] were 0.006 µg/mL (≈ 0.0107 µM) and 0.01 µg/mL (≈ 0.0178 µM), respectively. For the same compound, the Solubility entry in data set [4] is “soluble in chloroform, acetone, ethyl acetate and ethanol, insoluble in water and hexane”.

With `C/C=C/C/C=C/C(C)CC(O)C1CC2OC2/C=C/C(O)C(O)/C=C/CC(C)CC(=O)O1` (stereo not drawn) [Compound 11], the IC50 in data set [1] amounted to 0.08 µg/mL (≈ 0.184 µM); in data set [2], 0.05 µg/mL (≈ 0.115 µM). In data set [4], the Solubility result is “soluble in chloroform, acetone, ethyl acetate and ethanol, insoluble in water and hexane”.

With `COc1cccc2c1C(=O)c1c(O)c3c(c(O)c1C2=O)C[C@@](O)(C(=O)CO)C[C@@H]3O[C@H]1C[C@H](N)[C@H](O)[C@H](C)O1` [Doxorubicin, doxorubicin, reference compound], the IC50 in data set [1] was 0.04 µg/mL (≈ 0.0736 µM); in data set [2], 0.02 µg/mL (≈ 0.0368 µM).
